Measurements: paper PMC3138873 (Biochemical pharmacology, 2011)
Where two headings read alike, the source gives them in different places.

Tests used:
[1] = molecular target: T1, VC1:IIC2 (UniProt P26769+P30803); test: Inhibition of the catalytic activity of purified VC1:IIC2; format: biochemical, mammalian
[2] = molecular target: T2, AC5 (Canis lupus familiaris, UniProt P30803); settings: read-out: AC5 Ki; Sf9 membranes, 5 mM MnCl2, 100 μM FS; mean ± SD; cited from earlier work
[3] = molecular target: T3, AC1 (Bos taurus, UniProt P19754); settings: read-out: AC1 Ki; Sf9 membranes, 5 mM MnCl2, 100 μM FS; mean ± SD; cited from earlier work
T3 sequence (P19754 whole entry): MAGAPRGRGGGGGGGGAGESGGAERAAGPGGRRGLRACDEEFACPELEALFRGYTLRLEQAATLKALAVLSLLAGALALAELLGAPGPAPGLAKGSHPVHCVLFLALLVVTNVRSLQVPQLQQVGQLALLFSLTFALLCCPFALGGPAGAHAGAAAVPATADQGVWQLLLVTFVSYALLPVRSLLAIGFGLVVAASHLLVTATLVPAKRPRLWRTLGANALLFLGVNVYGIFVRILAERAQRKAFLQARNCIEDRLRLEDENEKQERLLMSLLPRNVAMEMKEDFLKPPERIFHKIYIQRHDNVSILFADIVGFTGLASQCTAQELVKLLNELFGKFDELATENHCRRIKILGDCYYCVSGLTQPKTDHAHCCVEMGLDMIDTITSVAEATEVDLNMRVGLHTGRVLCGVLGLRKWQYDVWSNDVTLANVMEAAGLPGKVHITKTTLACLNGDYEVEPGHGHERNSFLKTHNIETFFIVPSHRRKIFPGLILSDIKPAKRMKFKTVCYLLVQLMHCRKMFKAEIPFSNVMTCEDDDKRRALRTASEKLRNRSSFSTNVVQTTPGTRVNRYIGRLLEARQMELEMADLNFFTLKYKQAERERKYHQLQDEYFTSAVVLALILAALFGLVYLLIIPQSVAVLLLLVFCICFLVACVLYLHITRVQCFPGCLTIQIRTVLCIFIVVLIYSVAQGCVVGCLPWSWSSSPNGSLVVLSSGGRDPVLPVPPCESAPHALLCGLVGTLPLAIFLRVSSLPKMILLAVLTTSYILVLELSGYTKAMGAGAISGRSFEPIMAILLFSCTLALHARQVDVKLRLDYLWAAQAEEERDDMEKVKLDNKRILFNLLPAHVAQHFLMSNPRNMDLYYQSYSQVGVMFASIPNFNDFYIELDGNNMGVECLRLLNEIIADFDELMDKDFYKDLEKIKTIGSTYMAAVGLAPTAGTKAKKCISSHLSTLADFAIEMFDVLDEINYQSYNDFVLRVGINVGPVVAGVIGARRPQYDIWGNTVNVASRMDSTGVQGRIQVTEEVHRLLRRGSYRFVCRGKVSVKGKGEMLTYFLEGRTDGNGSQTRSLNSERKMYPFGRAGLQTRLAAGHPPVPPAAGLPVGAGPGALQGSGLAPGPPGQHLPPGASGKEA

[4] = molecular target: T4, AC2 (Rattus norvegicus, UniProt P26769); settings: read-out: AC2 Ki; Sf9 membranes, 5 mM MnCl2, 100 μM FS; mean ± SD; cited from earlier work
T4 sequence (P26769 whole entry): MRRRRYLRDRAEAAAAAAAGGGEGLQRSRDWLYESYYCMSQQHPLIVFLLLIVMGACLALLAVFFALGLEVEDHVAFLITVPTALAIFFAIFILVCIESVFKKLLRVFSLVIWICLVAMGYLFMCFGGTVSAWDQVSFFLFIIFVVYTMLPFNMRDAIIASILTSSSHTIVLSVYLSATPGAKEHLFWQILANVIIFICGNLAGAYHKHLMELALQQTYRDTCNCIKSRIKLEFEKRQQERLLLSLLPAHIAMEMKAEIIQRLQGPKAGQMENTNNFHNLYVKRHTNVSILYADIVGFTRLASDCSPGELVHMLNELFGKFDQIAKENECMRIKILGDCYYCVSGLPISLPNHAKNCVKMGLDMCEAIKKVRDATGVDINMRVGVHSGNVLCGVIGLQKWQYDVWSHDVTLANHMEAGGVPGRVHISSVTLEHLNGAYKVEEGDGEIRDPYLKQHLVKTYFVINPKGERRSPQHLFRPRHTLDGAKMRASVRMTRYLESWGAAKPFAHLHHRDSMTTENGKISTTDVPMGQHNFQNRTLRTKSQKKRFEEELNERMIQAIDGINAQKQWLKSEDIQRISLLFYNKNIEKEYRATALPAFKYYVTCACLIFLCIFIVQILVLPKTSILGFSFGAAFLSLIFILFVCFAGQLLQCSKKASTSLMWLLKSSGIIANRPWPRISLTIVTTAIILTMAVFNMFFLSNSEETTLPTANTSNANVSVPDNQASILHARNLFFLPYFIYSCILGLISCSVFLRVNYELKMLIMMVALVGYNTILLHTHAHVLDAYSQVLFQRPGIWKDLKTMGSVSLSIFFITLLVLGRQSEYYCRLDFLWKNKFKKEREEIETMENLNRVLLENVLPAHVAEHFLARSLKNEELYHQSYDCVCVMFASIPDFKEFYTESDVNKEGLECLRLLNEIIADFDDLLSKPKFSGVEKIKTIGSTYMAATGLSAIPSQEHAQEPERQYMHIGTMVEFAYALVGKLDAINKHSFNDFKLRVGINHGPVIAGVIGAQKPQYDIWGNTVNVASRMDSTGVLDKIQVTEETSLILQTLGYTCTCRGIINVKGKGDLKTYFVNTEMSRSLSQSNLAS

[5] = molecular target: T1, VC1:IIC2; settings: cited from earlier work
[6] = molecular target: ACs 1, 2 and 5; settings: read-out: Ki for ACs 1, 2 and 5; TNP-nucleotides; cited from earlier work
[7] = molecular target: T2, AC5; test: AC activity assay in Sf9 membranes expressing recombinant AC5; format: biochemical, mammalian; settings: for Potency difference AC5 versus AC2: comparison of Ki at AC5 versus AC2
[8] = molecular target: T3, AC1; test: AC activity assay in Sf9 membranes expressing recombinant AC1; format: biochemical, mammalian
[9] = molecular target: T4, AC2; test: AC activity assay in Sf9 membranes expressing recombinant AC2; format: biochemical, mammalian
[10] = read-out: VC1:IIC2 Mn2+ + FS + Gsα-GTPγS Ki, maximally stimulated: 10 mM MnCl2, 100 μM FS, 100 μM ATP, mean ± SD
[11] = read-out: Ki for VC1:IIC2, TNP-nucleotides
[12] = read-out: AC5 Ki, Sf9 membranes, 5 mM MnCl2, 100 μM FS, mean ± SD
[13] = read-out: AC1 Ki, Sf9 membranes, 5 mM MnCl2, 100 μM FS, mean ± SD
[14] = read-out: AC2 Ki, Sf9 membranes, 5 mM MnCl2, 100 μM FS, mean ± SD
[15] = read-out: VC1:IIC2 Mn2+ + FS + Gsα-GTPγS Ki, maximally stimulated: 10 mM MnCl2, 100 μM FS, Gsα-GTPγS, mean ± SD
[16] = VC1:IIC2 Mn2+ + FS + Gsα-GTPγS Ki, maximally stimulated: 10 mM MnCl2, 100 μM FS, 100 μM ATP, mean ± SD

T2 sequence (P30803 whole entry): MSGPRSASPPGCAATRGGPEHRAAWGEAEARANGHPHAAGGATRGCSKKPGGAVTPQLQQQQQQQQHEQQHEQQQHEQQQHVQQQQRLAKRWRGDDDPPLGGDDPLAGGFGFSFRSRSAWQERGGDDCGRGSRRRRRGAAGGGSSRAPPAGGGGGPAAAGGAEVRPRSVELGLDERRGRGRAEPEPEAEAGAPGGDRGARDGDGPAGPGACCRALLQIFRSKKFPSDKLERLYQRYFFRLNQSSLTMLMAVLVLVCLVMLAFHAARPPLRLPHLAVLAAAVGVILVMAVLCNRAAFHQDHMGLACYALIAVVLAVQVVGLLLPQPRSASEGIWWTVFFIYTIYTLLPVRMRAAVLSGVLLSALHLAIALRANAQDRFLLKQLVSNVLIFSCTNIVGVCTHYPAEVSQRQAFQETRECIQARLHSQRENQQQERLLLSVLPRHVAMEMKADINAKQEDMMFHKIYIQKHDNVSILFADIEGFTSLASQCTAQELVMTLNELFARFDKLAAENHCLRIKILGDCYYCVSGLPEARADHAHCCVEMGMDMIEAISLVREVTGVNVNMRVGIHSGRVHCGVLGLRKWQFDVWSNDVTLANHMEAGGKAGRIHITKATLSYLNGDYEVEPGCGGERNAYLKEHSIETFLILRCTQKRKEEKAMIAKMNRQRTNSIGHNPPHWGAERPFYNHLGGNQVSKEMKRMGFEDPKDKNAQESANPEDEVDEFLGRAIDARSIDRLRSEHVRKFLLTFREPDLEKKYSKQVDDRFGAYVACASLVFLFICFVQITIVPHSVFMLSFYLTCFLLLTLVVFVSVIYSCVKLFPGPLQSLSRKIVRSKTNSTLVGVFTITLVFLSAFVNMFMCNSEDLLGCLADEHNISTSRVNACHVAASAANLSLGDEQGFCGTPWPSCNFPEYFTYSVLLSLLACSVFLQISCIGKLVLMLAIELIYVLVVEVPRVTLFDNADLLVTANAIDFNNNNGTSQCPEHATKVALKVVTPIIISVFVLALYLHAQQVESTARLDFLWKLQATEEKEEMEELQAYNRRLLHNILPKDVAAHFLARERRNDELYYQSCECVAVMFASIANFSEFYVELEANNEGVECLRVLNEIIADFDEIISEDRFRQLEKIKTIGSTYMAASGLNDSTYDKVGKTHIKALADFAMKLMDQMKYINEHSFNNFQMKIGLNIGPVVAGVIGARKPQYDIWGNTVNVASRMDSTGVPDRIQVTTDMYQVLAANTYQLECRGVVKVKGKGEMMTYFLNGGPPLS
T1 sequence (P30803 398-765 limits assumed): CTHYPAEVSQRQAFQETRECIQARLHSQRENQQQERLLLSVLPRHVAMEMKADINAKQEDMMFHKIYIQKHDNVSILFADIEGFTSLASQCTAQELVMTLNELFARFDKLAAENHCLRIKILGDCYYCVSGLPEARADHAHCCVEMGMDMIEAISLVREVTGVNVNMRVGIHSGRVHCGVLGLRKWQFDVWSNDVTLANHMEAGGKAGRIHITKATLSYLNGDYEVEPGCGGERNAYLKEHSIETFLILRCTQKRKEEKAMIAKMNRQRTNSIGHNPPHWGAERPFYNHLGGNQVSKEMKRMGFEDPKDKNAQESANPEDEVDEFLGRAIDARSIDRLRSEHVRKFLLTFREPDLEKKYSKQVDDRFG
T1 sequence (P26769 821-1090 limits assumed): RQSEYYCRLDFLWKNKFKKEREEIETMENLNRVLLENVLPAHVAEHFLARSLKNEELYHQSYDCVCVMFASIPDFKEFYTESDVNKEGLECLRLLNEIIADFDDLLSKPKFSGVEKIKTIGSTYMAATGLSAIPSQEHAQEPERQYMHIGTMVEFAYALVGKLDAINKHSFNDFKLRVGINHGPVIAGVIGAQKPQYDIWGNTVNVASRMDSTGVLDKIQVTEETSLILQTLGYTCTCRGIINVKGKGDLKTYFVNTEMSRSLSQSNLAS
T1 sequence (P04896 whole entry partner): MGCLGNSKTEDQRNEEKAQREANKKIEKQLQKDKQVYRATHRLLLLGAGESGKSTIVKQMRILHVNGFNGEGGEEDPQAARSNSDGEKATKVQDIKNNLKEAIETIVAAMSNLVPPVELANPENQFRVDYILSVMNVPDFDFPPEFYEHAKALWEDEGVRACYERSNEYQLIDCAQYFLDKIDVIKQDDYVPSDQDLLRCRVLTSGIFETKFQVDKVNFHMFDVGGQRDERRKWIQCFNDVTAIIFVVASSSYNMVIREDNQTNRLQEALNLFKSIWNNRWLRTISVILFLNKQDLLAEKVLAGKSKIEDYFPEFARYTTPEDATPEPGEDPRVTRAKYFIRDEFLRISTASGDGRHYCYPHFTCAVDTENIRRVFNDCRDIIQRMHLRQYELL

**Q.** For “2’(3’)-O-(N-methylanthraniloyl)-cytidine 5’-triphosphate [compound 12]”, which Ki [1, 10] is on record?
**A.** The Ki was 9.2 ± 1.5 nM.

**Q.** What about the Ki [2] of the same compound?
**A.** Its Ki is 150 ± 30 nM.

**Q.** And the Ki [3]?
**A.** The Ki was 150 ± 30 nM.

**Q.** What about the Ki [4] of the same compound?
**A.** Its Ki is 690 ± 20 nM.

**Q.** Which Ki [5, 11] does the source give for “2’,3’-O-(2,4,6-trinitrophenyl)-CTP [reference compound]” here?
**A.** Its Ki is 100 to 300 nM.

**Q.** What about the Ki [6] of the same compound?
**A.** Its Ki is 10 to 100 nM.

**Q.** For “2’,3’-O-(2,4,6-trinitrophenyl)-UTP [reference compound]”, which Ki [5, 11] is on record?
**A.** The Ki was 100 to 300 nM.

**Q.** And the Ki [6]?
**A.** Its Ki is 10 to 100 nM.

**Q.** Which Ki [3] does the source give for “2’,3’-O-(N-methylanthraniloyl)-adenosine 5’-triphosphate [compound 5]” here?
**A.** The Ki was 150 ± 40 nM.

**Q.** What does the source list for “2’,3’-O-(N-methylanthraniloyl)-guanosine 5’-[γ-thio]triphosphate [compound 4]”?
**A.** Ki [1, 10]: 24 ± 4.1 nM; Ki [7, 12]: 34 ± 8 nM; Ki [8, 13]: 63 ± 17 nM; Ki [9, 14]: 370 ± 81 nM

**Q.** Which results are given for “2’,3’-O-(N-methylanthraniloyl)-guanosine 5’-triphosphate [compound 1]”?
**A.** Ki [5, 15]: 18 ± 6 nM; Potency difference AC5 versus AC2 [7]: > 10 fold; Ki [7, 12]: 53 ± 12 nM; Ki [8, 13]: 90 ± 18 nM; Ki [9, 14]: 610 ± 70 nM

**Q.** Which results are given for “2’,3’-O-(N-methylanthraniloyl)-uridine 5’-triphosphate [compound 11]”?
**A.** Ki [1, 10]: 6.1 ± 1.3 nM; Potency difference AC5 versus AC2 [7]: > 10 fold; Ki [7, 12]: 32 ± 2 nM; Ki [8, 13]: 46 ± 4 nM; Ki [9, 14]: 460 ± 60 nM

**Q.** For “2’,3’-O-(N-methylanthraniloyl)-xanthosine 5’-triphosphate [compound 10]”, which Ki [5, 15] is on record?
**A.** Its Ki is 1200 nM.

**Q.** What about the Ki [7, 12] of the same compound?
**A.** The Ki was 1300 nM.

**Q.** What about the Ki [8, 13] of the same compound?
**A.** Its Ki is 1100 nM.

**Q.** What about the Ki [9, 14] of the same compound?
**A.** The Ki was 3000 nM.

**Q.** With “2’,3’-O-anthraniloyl-adenosine 5’-diphosphate [compound 15]” as the compound, how does the Ki [8, 13] read?
**A.** The Ki was 860 ± 10 nM.

**Q.** And the Ki [9, 14]?
**A.** The Ki was 2900 nM.

**Q.** Which Ki [8, 13] does the source give for “2’,3’-O-anthraniloyl-adenosine 5’-triphosphate [compound 14]” here?
**A.** Its Ki is 130 ± 20 nM.

**Q.** And the Ki [9, 14]?
**A.** The Ki was 640 ± 70 nM.

**Q.** For “2’,3’-O-anthraniloyl-guanosine 5’-triphosphate [compound 13]”, which Ki [1, 10] is on record?
**A.** The Ki was 10 ± 1.7 nM.

**Q.** Which results are given for `CNc1ccccc1C(=O)O[C@H]1C[C@H](n2cnc3c(=O)[nH]c(N)nc32)O[C@@H]1COP(=O)(O)OP(=O)(O)OP(=O)(O)O` [compound 2, 2’-deoxy-3’-O-(N-methylanthraniloyl)-guanosine 5’-triphosphate]?
**A.** Ki [7]: 410 ± 35 nM; Ki [8]: 270 ± 30 nM; Ki [9]: 1300 ± 210 nM

**Q.** For `CNc1ccccc1C(=O)O[C@@H]1C[C@@H](COP(=O)(O)OP(=O)(O)OP(=O)(O)O)O[C@H]1n1cnc2c(=O)[nH]c(N)nc21` [compound 3, 3’-deoxy-2’-O-(N-methylanthraniloyl)-guanosine 5’-triphosphate], which Ki [1, 16] is on record?
**A.** The Ki was 350 ± 43 nM.

**Q.** And the Ki [7]?
**A.** The Ki was 1800 nM.

**Q.** And the Ki [8]?
**A.** Its Ki is 1800 nM.

**Q.** What about the Ki [9] of the same compound?
**A.** The Ki was 8700 nM.

**Q.** For `CNc1ccccc1C(=O)O[C@H]1C[C@H](n2cnc3c(N)ncnc32)O[C@@H]1COP(=O)(O)OP(=O)(O)OP(=O)(O)O` [compound 6, 2’-deoxy-3’-O-(N-methylanthraniloyl)-adenosine 5’-triphosphate], which Ki [1, 16] is on record?
**A.** The Ki was 190 ± 3.4 nM.

**Q.** And the Ki [7]?
**A.** Its Ki is 360 ± 54 nM.

**Q.** What about the “Potency difference AC5 versus AC2” value [7] of the same compound?
**A.** Its value is greater than 10 fold.

**Q.** And the Ki [8]?
**A.** The Ki was 320 ± 19 nM.

**Q.** And the Ki [9]?
**A.** Its Ki is 4800 nM.

**Q.** For `CNc1ccccc1C(=O)O[C@@H]1C[C@@H](COP(=O)(O)OP(=O)(O)OP(=O)(O)O)O[C@H]1n1cnc2c(N)ncnc21` [compound 7, 3’-deoxy-2’-O-(N-methylanthraniloyl)-adenosine 5’-triphosphate], which Ki [1, 16] is on record?
**A.** Its Ki is 90 ± 2.2 nM.

**Q.** What about the Ki [7] of the same compound?
**A.** The Ki was 65 ± 5 nM.

**Q.** And the Ki [8]?
**A.** The Ki was 470 ± 20 nM.

**Q.** What about the Ki [9] of the same compound?
**A.** The Ki was 540 ± 20 nM.
